Consider 1 molecule from ChEMBL document CHEMBL4476863, “Heterocyclic compounds for the inhibition of pask” (2012).

This test deals with PAS domain-containing serine/threonine-protein kinase (Homo sapiens, UniProt Q96RG2). Description: Inhibition of purified human PASK kinase domain expressed in insect cells incubated for 10 mins using MBP protein by kinase-Glo luminescent kinase assay. In general terms: Kinase-Glo reads ATP consumption through a luciferase reaction.

SMILES strings stand for the structures. Some results are limits rather than exact numbers.

Chain of PAS domain-containing serine/threonine-protein kinase (Q96RG2 whole entry, the tested form may be a part): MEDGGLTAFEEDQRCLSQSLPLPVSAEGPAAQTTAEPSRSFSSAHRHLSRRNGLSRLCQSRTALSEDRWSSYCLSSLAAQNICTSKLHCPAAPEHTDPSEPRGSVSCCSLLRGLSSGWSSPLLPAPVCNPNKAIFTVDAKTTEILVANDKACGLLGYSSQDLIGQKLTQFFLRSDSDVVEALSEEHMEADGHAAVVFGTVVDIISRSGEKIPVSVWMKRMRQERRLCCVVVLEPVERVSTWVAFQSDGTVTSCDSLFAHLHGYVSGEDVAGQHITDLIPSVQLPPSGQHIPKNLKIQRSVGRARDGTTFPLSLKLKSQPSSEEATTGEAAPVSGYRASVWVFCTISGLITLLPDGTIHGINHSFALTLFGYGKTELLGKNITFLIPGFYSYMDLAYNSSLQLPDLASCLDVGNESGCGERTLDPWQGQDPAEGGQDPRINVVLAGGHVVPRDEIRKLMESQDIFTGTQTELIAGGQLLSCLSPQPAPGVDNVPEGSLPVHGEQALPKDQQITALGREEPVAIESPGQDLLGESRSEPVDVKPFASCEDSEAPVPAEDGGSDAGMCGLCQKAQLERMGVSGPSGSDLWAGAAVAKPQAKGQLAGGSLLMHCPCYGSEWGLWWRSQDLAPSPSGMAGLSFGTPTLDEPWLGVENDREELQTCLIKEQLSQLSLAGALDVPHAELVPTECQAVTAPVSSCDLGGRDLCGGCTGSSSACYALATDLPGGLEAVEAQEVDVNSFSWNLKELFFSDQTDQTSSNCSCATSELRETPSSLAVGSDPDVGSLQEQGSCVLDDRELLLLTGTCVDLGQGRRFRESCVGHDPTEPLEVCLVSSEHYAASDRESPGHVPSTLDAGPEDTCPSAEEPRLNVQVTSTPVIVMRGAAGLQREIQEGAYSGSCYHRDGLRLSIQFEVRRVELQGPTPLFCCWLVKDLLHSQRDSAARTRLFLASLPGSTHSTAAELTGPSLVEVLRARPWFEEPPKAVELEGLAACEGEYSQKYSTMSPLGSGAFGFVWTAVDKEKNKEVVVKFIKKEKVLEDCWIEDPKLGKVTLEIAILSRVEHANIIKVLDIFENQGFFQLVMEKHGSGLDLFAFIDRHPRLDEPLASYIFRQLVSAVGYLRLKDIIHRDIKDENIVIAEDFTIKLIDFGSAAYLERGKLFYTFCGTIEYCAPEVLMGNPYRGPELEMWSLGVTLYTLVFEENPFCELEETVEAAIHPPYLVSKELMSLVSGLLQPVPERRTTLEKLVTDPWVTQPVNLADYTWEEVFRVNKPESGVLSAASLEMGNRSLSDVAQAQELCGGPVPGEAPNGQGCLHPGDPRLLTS

Broadly, the IC50 is the midpoint of a concentration-inhibition curve. High values mean weaker potency, low ones greater potency. `O=c1cc(-c2ccc3c(c2)OCO3)[nH]c2c(-c3ccccn3)cnn12` came in with an IC50 of no more than 10 µM.
